Test results published in patent US20220178944A1, “METHODS FOR IDENTIFYING DIFFERENTIAL HISTONE RETENTION FOR EPIGENETIC ALTERATIONS IN GERMLINE DNA OF ANIMALS” (Washington State University, priority 2020, published 2022).

Assays:
Sprague Dawley rats = assay: Histopathology and disease classification, F3 generation atrazine lineage males; assay type: in vivo, rat
Experimental: Female and male rats of an outbred strain Hsd:Sprague Dawley SD (Harlan) at 70 to 100 days of age were fed ad lib with a standard rat diet and ad lib tap water. Timed-pregnant females on days 8 through 14 of gestation were administered daily intraperitoneal injections of atrazine (25 mg/kg BW/day dissolved in PBS) (Chem Service, Westchester Pa.) or dimethyl sulfoxide (DMSO) or as previously described. Twenty-five mg/kg for atrazine is 4% of rat oral LD50 and 50% of NOAEL.
The gestating female rats treated were designated as the F0 generation. F1-F3 generation control and atrazine lineages were housed in the same room and racks with lighting, food and water.
Rats were euthanized at 12 months of age by CO2 inhalation and cervical dislocation for tissue harvest. Testis, prostate, ovary, kidney, and gonadal fat pads were fixed in Bouin's solution (Sigma) followed by 70% ethanol, then processed for paraffin embedding and hematoxylin, and eosin (H & E) staining by standard procedures for histopathological examination. Paraffin five micron sections were processed and stained (Nationwide Histology, Spokane Wash., USA).
Full necropsies were performed as required on animals that died prior to the time of scheduled sacrifice at one year and tumor classifications were performed.
Upon dissection a brief examination of abdominal and thoracic organs was performed to look for obvious abnormalities. The tissues evaluated histologically were selected from previous literature showing them to have pathology in transgenerational models, with an emphasis on reproductive organs. Histopathology readers were trained to recognize the specific abnormalities evaluated for this study in rat testis, ventral prostate and kidney (see below). Two different readers initially evaluated the tissues. […] Readers were blinded to the exposure groups. A set of quality control (QC) slides was generated for each tissue and was read by each reader prior to evaluating any set of experimental slides. These QC slide results are monitored for reader accuracy and concordance.
Testis histopathology criteria included the presence of vacuoles in the seminiferous tubules, azoospermic atretic seminiferous tubules, and ‘other’ abnormalities including sloughed spermatogenic cells in the center of the tubule and a lack of a tubule lumen. Prostate histopathology criteria included the presence of vacuoles in the glandular epithelium, atrophic glandular epithelium and hyperplasia of prostatic gland epithelium (FIG. 25). Kidney histopathology criteria included reduced size of glomerulus, thickened Bowman's capsule, and the presence of proteinaceous fluid-filled cysts >50 μm in diameter (FIG. 25). A cut-off was established to declare a tissue ‘diseased’ based on the mean number of histopathological abnormalities plus two standard deviations from the mean of control group tissues, as assessed by each of the individual readers. This number (i.e. greater than two standard deviations) was used to classify rats into those with and without testis, prostate, or kidney disease in the F3 generation lineage. A rat tissue section was finally declared ‘diseased’ only when at least two of the three readers marked the same tissue section ‘diseased’.
Lean phenotype was assessed with a decrease in adipocyte size (area), body mass index (BMI) and abdominal adiposity. BMI was calculated with weight (g)/length (cm)^2 with the length of the animal measured from the nose to the base of the tail. Gonadal fat pad slides were imaged using a Nikon Eclipse E800 microscope (10×) with an AVT Prosilica GE1050C Color GigE camera. Five field of view image captures were taken per slide in varying parts of the fat pad. Adipocyte size was measured converting pixels into microns using Adiposoft. Measurements of the 20 largest cells from each image for a total of 100 were averaged as hypertrophic cells are the most metabolically relevant and susceptible to cell death. […]

[1] = Glyphosate metabolism turnover (half-life); assay type: in vivo; conditions: worked out from 2-4 half-lives per 24-hour period
sperm DNA methylation = assay: Sperm differential DNA methylation regions (DMRs), MeDIP-Seq, glyphosate versus control lineage; assay type: in vivo, rat; conditions: F3 generation males, edgeR p<1e-05
Description: (§1) Outbred Sprague Dawley SD male and female rats were fed a standard diet with water ad lib and mated. […] Female and male rats of an outbred strain Hsd:Sprague Dawley SD (Harlan) at 70 to 100 days of age were fed ad lib with a standard rat diet and ad lib tap water.
(§2) The gestating female rats treated were designated as the F0 generation. Breeding for each generation occurred at 70-90 days and 5 different litters were generated with no cousin or sibling breeding to avoid any inbreeding artifacts. Litters were culled to 10 pups (5 males and 5 females) between days 3-5 of birth to avoid litter effects. […] The F3 generation males were aged to 1 year of age for pathology analysis.
Briefly, the epididymis was dissected free of fat and connective tissue, then, after cutting open the cauda, placed into 6 ml of phosphate buffer saline (PBS) for 20 minutes at room temperature. Further incubation at 4° C. will immobilize the sperm. The tissue was then minced, the released sperm pelleted at 4° C. 3,000×g for 10 min, then resuspended in NIM buffer and stored at −80° C. for further processing.
An appropriate amount of rat sperm suspension was used for DNA extraction. […]
Genomic DNA was sonicated and run on 1.5% agarose gel for fragment size verification. […] DNA concentration was measured in Qubit (Life Technologies) with the ssDNA kit (Molecular Probes Q10212). […]

[2] = system: sperm histone H3 retention sites; assay: Sperm differential histone retention regions (DHRs), histone H3 ChIP-Seq, glyphosate versus control lineage; assay type: in vivo, rat; conditions: F3 generation males; F0 25 mg/kg/day i.p. gestation days 8-14; edgeR p<1e-05
Description: as §1, §2
Histone chromatin immunoprecipitation with genomic DNA was performed. Individual rat sperm were collected, and the sperm counts were determined for each individual. A sonication of 10 seconds was performed for each sperm sample to remove any somatic cell contamination using a Sonic Dismembrator Model 300 (Thermo Scientific Fisher, USA) then centrifuged 1800×g for 5 minutes at 4° C. then resuspended and counted individually on a Neubauer counting chamber (Propper manufacturing Co., Inc., New York, USA). The sperm samples were reconstituted up to 1 ml with PBS (phosphate buffered saline). […]

[3] = cited from earlier work
[4] = in vivo; cited from earlier work
[5] = F3 generation atrazine lineage males, 1 year of age, # evaluated 55

CCNc1nc(Cl)nc(NC(C)C)n1 [atrazine]
prevalence of transgenerational lean pathology in the exposed population (Sprague Dawley rats; F3 generation atrazine lineage): nearly a third of the animals
# affected, Kidney disease (Sprague Dawley rats; [5]): 8
# affected, Lean (Sprague Dawley rats; [5]): 15
# affected, Obese (Sprague Dawley rats; [5]): 4
# affected, Prostate disease (Sprague Dawley rats; [5]): 4
# affected, Testis disease (Sprague Dawley rats; [5]): 12
# affected, Tumor (Sprague Dawley rats; [5]): 1
# affected, Puberty Late (Sprague Dawley rats; F3 generation atrazine lineage males, # evaluated 55): 10
# affected, Puberty Early (Sprague Dawley rats; F3 generation atrazine lineage males, F0 25 mg/kg/day i.p. gestation days 8-14, # evaluated 55): 0

O=C(O)CNCP(=O)(O)O [glyphosate]
daily decrease of concentration during the transient exposure period [1]: 75-90%
total number of sperm DMRs, control versus glyphosate (All Window) (sperm DNA methylation; F0 25 mg/kg/day i.p. gestation days 8-14): 340
number of sperm DMRs with multiple neighboring 1000 bp windows, control versus glyphosate (sperm DNA methylation): 11
number of sperm DHRs, glyphosate versus control [2]: 836
No Observational Adverse Effect Level (NOAEL) dose ([3]; direct exposure, mammalian rat model): 50 mg/kg per day
No Observable Adverse Effect Level (NOAEL) exposure ([3]; rat, in vivo): 50 mg/kg/day
half-life (metabolism turnover) [4]: 5 to 10 h
